Key:
MR1 = target: T1, MR1 (Homo sapiens, UniProt Q95460); assay: Refolding of denatured MR1 and β2m with ligands; assay type: binding; details: substance added to MR1/β2m refold
T1 construct: soluble human MR1 (residues 1-270 of the mature, leaderless protein); made in house
Procedure: Genes encoding soluble human MR1 (residues 1-270 of the mature, leaderless protein, lacking the transmembrane and cytoplasmic domains); or human β2m (mature, leaderless protein) were expressed for four hours in BL21 E. coli following induction with 1 mM isopropyl β-D-1-thiogalactopyranoside. E. coli were pelleted and resuspended in a buffer containing 50 mM Tris, 25% (w/v) sucrose, 1 mM EDTA, 10 mM DTT pH 8.0. Inclusion body protein was then extracted by lysis of bacteria in a buffer containing 50 mM Tris pH 8.0, 1% (w/v) Triton X-100, 1% (w/v) sodium deoxycholate, 100 mM NaCl, 10 mM DTT, 5 mM MgCl2, and 1 mg DnaseI per liter of starting culture; and subsequent steps involved homogenization with a polytron homogenizer, centrifugation, and washing inclusion body protein sequentially with firstly a buffer containing 50 mM Tris pH 8, […], 100 mM NaCl, 1 mM EDTA, 1 mM DTT, and secondly a buffer containing 50 mM Tris pH 8.0, 1 mM EDTA, 1 mM DTT. Inclusion body protein was then resuspended in a buffer containing 20 mM Tris pH 8.0, 8 M urea, 0.5 mM EDTA, 1 mM DTT, and following centrifugation the supernatant containing solubilized, denatured inclusion body protein was collected and stored at −80° C.
2 mg of 6-formyl pterin, 56 mg of denatured inclusion body MR1 protein, and 28 mg of β2m protein were added to a 400 ml refold buffer solution containing 0.1 M Tris pH 8.5, 2 mM EDTA, 0.4 M arginine, 0.5 mM oxidized glutathione, 5 mM reduced glutathione. Variably, 5M urea was either present or absent. Following an overnight incubation at 4° C., the refold buffer was dialysed against 3 changes of buffer containing 10 mM Tris, pH8.0 over a period of 24 hours. Refolded MR1-β2m-ligand complex was then purified by sequential DEAE (GE Healthcare) anion exchange, S75 16/60 (GE Healthcare) gel filtration, and MonoQ (GE Healthcare) anion exchange chromatography.

Jurkat.MAIT cells = assay: Activation of Jurkat.MAIT cells (CD69) with C1R antigen presenting cells expressing MR1; assay type: cell-based, human
Procedure: Jurkat cells transduced with a MAIT TCR comprising the TRAV1-2+TRAJ33 invariant α chain, and a TRBV6-1 β chain were tested for activation by addition of Salmonella supernatant to C1R antigen presenting cells expressing MR1 for 16 hours. Jurkat.MAIT cells were subsequently stained with PE-conjugated anti-CD3, and APC-conjugated anti-CD69 antibodies before analysis by flow cytometry. Activation of Jurkat.MAIT cells was measured by an increase in surface CD69 expression. Compounds to be tested for the ability to activate Jurkat.MAIT cells were tested alongside Salmonella supernatant.
A biological assay for the activation of MAIT T cell receptor (TCR)-expressing T cell lines (into which genes encoding the MAIT TCR alpha and beta chains had been introduced), by antigen presenting cells (expressing MR1 on the cell surface) infected with the bacterium Salmonella typhimurium has been established. This assay measures the increase in expression of the cell surface activation marker, CD69, upon activation of MAIT T cells.

Jurkat.LC13 line = assay: Activation of control Jurkat.LC13 line in the presence of C1R.HLA-B8 cells; assay type: cell-based, human
Text: Next, to formally establish whether 7-hydroxy-6-methyl-8-ribityl lumazine and/or its precursor, 6,7-dimethyl-8-ribityl lumazine, could activate MAIT cells, both compounds were chemically synthesized their ability to enable MR1 refolding and to activate Jurkat.MAIT cells and human MAIT cells from peripheral blood tested. […] Thus, direct precursors of riboflavin biosynthesis activate MAIT cells.

[1] = Stability of synthesised MR1 Ags; assay type: physicochemical
Text: Compounds 6,7-dimethyl-8-D-ribityllumazine (1), 7-hydroxy-6-methyl-8-D-ribityllumazine (2) and a 2 electron reduced form (3) of 6-hydroxymethyl-8-D-ribityllumazine were synthesised by modifications (FIG. 64) to reported literature procedures (for review see Plaut et al 1974). Their purities were established using proton NMR spectra and reversed phase HPLC traces. In brief, D-ribitylamine (6) was produced in 55% yield from D-(−)-ribose via its oxime intermediate. Condensation with 4-chlorouracil (7) followed by nitrosation provided the key intermediate (9) in reasonable yield (27%). The diaminouracil (10) was unstable, and therefore it was generated in situ, immediately before use, by reduction of the nitroso group with sodium hydrosulfite. Condensation with the corresponding α,β-dicarbonyl reagents at the optimal pH under a nitrogen atmosphere in the dark gave the products 1 and 2 after purification by preparative HPLC. […] For dimethyl analogue 1, three equivalents of 2,3-butadione gave a much purer crude product than reported in the literature, in which 6.6 equivalents gave a significant amount of bis-adduct and made purification difficult. […] Thus prolonged reaction and work-up procedures were best avoided. In contrast, a large excess of sodium pyruvate (9-18 eq) was key for efficient production of the 7-hydroxy analogue. […]

T1 sequence (Q95460 23-292): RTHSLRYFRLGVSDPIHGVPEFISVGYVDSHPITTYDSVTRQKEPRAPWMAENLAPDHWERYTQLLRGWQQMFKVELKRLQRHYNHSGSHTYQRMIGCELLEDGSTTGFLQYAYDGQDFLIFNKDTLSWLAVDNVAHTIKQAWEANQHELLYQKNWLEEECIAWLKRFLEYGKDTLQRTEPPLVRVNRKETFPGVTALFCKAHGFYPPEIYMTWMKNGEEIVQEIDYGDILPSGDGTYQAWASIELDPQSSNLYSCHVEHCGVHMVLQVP
T1 sequence (P61769 21-119 partner): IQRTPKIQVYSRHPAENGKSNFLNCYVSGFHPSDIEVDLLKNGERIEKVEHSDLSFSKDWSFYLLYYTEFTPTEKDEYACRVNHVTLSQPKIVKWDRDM

## Cc1nc2c(=O)[nH]c(=O)nc-2n(C[C@H](O)[C@H](O)[C@H](O)CO)c1C [Compound 1, 6,7-dimethyl-8-D-ribityllumazine]
MR1
  Ability to refold MR1 into native MR1-β2m complex: could be refolded with MR1
Jurkat.MAIT cells
  Activation of Jurkat.MAIT cells (increase in surface CD69): activated
Jurkat.LC13 line
  Activation of control Jurkat.LC13 line: failed to activate
[1]
  Stability: unstable, particularly in solution

— patent US10011602B2, “Immunological reagents and uses therefor” (THE UNIVERSITY OF MELBOURNE, priority 2012, dated 2018)
